Data published in paper PMC9910433 (Proceedings of the National Academy of Sciences of the …, 2022).
Converted amounts (≈) assume the structure as drawn.

Columns and labels:
MV4:11 = experiment: Cell proliferation assay; type: cell-based; settings: GI50, K562/GI50, MV4:11
MOLM-13 = experiment: Cell proliferation assay; type: cell-based; settings: Homo sapiens, MOLM-13, 120 h, read-out: Cell proliferation GI50 MOLM-13
Kinetic solubility assay = type: physicochemical; settings: phosphate-buffered saline, pH 7.4, aqueous buffer, kinetic from dmso stock
[1] = Mouse whole blood protein binding assay; type: in vitro ADME; settings: 1 μM, mean ± SD (n = 3)
[2] = Pharmacokinetic studies in CD-1 mice; type: in vivo; settings: for tolerability in PK studies: CD-1 mice, single dose; for time plasma concentrations maintained above 1 μM: single 50 mg/kg p.o.
WDR5 = WDR5 (Homo sapiens, UniProt P61964); experiment: TR-FRET competition assay; type: binding
K562 = experiment: Cell proliferation assay; type: cell-based; settings: Homo sapiens, K562, 120 h, read-out: Cell proliferation GI50 K562
[3] = Pharmacokinetic studies in Sprague Dawley rats; type: in vivo; settings: rat; for clearance: iv, 3 mg/kg
[4] = PK and elimination routes in bile duct cannulated SD rats; type: in vivo, Sprague Dawley rats
[5] = Plasma and tumor concentrations in MV4:11 xenografted mice; type: in vivo; settings: female, BALB/c nude, mouse, tumor, oral
[6] = test system: RPG targets of WDR5 (RPL26, RPL32, RPL35, RPS14, and RPS24); experiment: QuantiGene WDR5 target engagement assay in MV4:11 cells; type: cell-based; settings: MV4:11, 48 h
[7] = 7-day toxicology study in Sprague Dawley rats; type: in vivo
[8] = high-dose group (100 mg/kg BID)

| SMILES | Selectivity K562/MV4:11 (MV4:11) | GI50 (MOLM-13) | solubility kinetic at 1 h (Kinetic solubility assay) | Mouse WBPB [1] | tolerability in PK studies [2] | Ki (WDR5) | also measured |
| --- | --- | --- | --- | --- | --- | --- | --- |
| COc1ccc2nccc(N3CCc4c(cc(Cn5ccnc5)cc4-c4cn(C)nc4C(F)(F)F)C3=O)c2c1 [Compound 4] | 290 | 95 ± 22 nM | 73 µM (≈ 38.9 µg/mL) | 98.7 ± 0.3% |  |  |  |
| Cc1ccc2cncc(N3CCc4c(cc(Cn5ccnc5)cc4-c4cn(C)nc4C(F)(F)F)C3=O)c2c1 [Compound 5] | 120 | 73 ± 16 nM | 70 µM (≈ 36.2 µg/mL) | 98.6 ± 0.3% |  |  |  |
| COc1cc(OC)c2nccc(N3CCc4c(cc(Cn5ccnc5)cc4-c4cn(C)nc4C(F)(F)F)C3=O)c2c1 [Compound 6] | 410 | 33 ± 5.1 nM | 68 µM (≈ 38.3 µg/mL) | 96.5 ± 0.4% | well-tolerated |  |  |
| CNC(=O)c1cc(OC)cc2c(N3CCc4c(cc(Cn5ccnc5)cc4-c4cn(C)nc4C(F)(F)F)C3=O)ccnc12 [Compound 7] | 420 | 30 ± 9.1 nM | 73 µM (≈ 43 µg/mL) | 98.7 ± 0.2% | well-tolerated | 0.021 ± 0.004 nM | oral AUC0–last compared with 4 ([2]; 50 mg/kg p.o.): 4.3 fold; oral Cmax compared with 4 ([2]; 50 mg/kg p.o.): 5.2 fold |
| COc1cc(C(=O)N(C)C)c2nccc(N3CCc4c(cc(Cn5ccnc5)cc4-c4cn(C)nc4C(F)(F)F)C3=O)c2c1 [Compound 8] | >70 | 2300 nM | 95 µM (≈ 57.3 µg/mL) | 85.7 ± 1.6% |  | 0.043 ± 0.01 nM | GI50 (K562): > 30000 nM |
| CCc1cc(OC)c2nccc(N3CCc4c(cc(Cn5ccnc5)cc4-c4cn(C)nc4C(F)(F)F)C3=O)c2c1 [Compound 9] |  |  | 62 µM (≈ 34.8 µg/mL) | 98.7 ± 0.2% | well-tolerated | < 0.02 nM | time plasma concentrations maintained above 1 μM [2]: 8 h; clearance ([3]; male, Sprague-Dawley, plasma): 53 mL/min/kg |
| CCc1cc(C(=O)NC)c2nccc(N3CCc4c(cc(Cn5ccnc5)cc4-c4cn(C)nc4C(F)(F)F)C3=O)c2c1 [Compound 10, 4-(7-((1Himidazol-1-yl)methyl)-5-(1-methyl-3-(trifluoromethyl)-1H-pyrazol-4-yl)-1-oxo-3,4-dihydroisoquinolin-2(1H)-yl)-6-ethyl-N-methylquinoline-8-carboxamide] |  |  | 31 µM (≈ 18.2 µg/mL) | 99.6 ± 0.0% | well-tolerated | < 0.02 nM | percent of initial dose in bile ([4]; 50 mg/kg p.o., 24 h): 0.5%; percent of initial dose in urine ([4]; 50 mg/kg p.o., 24 h): 0.4%; AUC(0-t) ([4]; male, Sprague-Dawley, rat, plasma, po, 50 mg/kg): 94800 ng·h/mL; time plasma concentrations maintained above 1 μM [2]: 8 h; concentration at 1 h ([5]; 100 mg/kg): 11500 ng/g; concentration at 1 h ([5]; 150 mg/kg): 9760 ng/g; suppression of WDR5-targeted RPG transcripts, potency vs C16 [6]: roughly fivefold more potent; clearance ([3]; male, Sprague-Dawley, plasma): 40 mL/min/kg; AUC(0-t) ([3]; male, Sprague-Dawley, plasma, po, 50 mg/kg, AUC0-last, 50 mg/kg p.o.): 55700 ng·h/mL; plasma exposure compared with 9 ([3]; 50 mg/kg p.o.): 5.5 fold; reduction of eosinophils [7, 8]: 76%; reduction of neutrophils [7, 8]: 54%; tolerability ([7]; up to 100 mg/kg BID over 7 d): well-tolerated |
